Among the data in patent US6410581B1, “Disubstituted biphenyloxazolines” (Bayer Aktiengesellschaft, priority 1997, dated 2002) are chromatographic logP and log p values, retold here.

Each structure is given as a SMILES string.

This data set can be described thus: log p, n-octanol/water partition coefficient by reverse phase HPLC (H2O/CH3CN). The class given is physicochemical. Particulars: for chromatographic logP: n-octanol/water.

`CCc1cc(-c2ccccc2)ccc1OC(C)=O` [4-acetoxy-3-ethyl-biphenyl] displayed a chromatographic logP (pH 2.3) of 3.92.

The molecule `CCCc1cc(-c2ccccc2)ccc1OC(C)=O` [4-acetoxy-3-propyl-biphenyl] yielded a chromatographic logP (pH 2.3) of 4.32. On to `CCOC(=O)Oc1c(Cl)cc(-c2ccccc2)cc1Cl` [(2,6-dichloro-4-phenyl-phenyl) ethyl carbonate], for which the chromatographic logP (pH 7.5) is 4.65. Take `CCOC(=O)Oc1ccc(-c2ccccc2)cc1Cl` [(2-Chloro-4-phenyl-phenyl) ethyl carbonate]: the chromatographic logP (pH 2.3) turned out to be 4.16.

`CCOC(=O)Oc1ccc(-c2ccccc2)cc1C` [(2-Methyl-4-phenyl-phenyl) ethyl carbonate] yielded a chromatographic logP (pH 2.3) of 4.04. The chromatographic logP values of the last two molecules are within 0.2 log units of each other.

`CCCc1cc(-c2ccccc2)ccc1OC(=O)OCC` [(4-phenyl-2-propyl-phenyl) ethyl carbonate] came in with a chromatographic logP (pH 2.3) of 4.76. For the molecule `CCC(C)Oc1ccc(-c2ccc(C3COC(c4c(F)cccc4F)=N3)cc2)cc1C` (centres unmarked) [Example I-7], the log p entry (pH 7.5) is listed as “log p*: 5.60 (pH = 7.5)”. On to `CCCc1cc(-c2ccc(C3COC(c4ccccc4C)=N3)cc2)ccc1OC(C)CC` (centres unmarked) [Example I-9], for which the log p result (pH 7.5) is “log p: 7.28 (pH = 7.5)”.

`CCCc1cc(-c2ccc(C3COC(c4c(F)cccc4F)=N3)cc2)ccc1OC(C)CC` (centres unmarked) [Example I-10]: the log p result (pH 7.5) is recorded as “log p: 6.33 (pH = 7.5)”. Still for that read-out and setting: under `Cc1cc(-c2ccc(C3COC(c4ccccc4Cl)=N3)cc2)ccc1OC(C)C` (centres unmarked) [Example I-12] stands “log p: 5.56 (pH = 7.5)”; under `Cc1cc(-c2ccc(C3COC(c4ccccc4Br)=N3)cc2)ccc1OC(C)C` (centres unmarked) [Example I-14], “log p: 5.63 (pH = 7.5)”; under `CCC(C)Oc1ccc(-c2ccc(C3COC(c4ccccc4Br)=N3)cc2)cc1C` (centres unmarked) [Example I-16], “log p: 6.12 (pH = 7.5)”. Regarding `CC(C)Oc1ccc(-c2ccc(C3COC(c4ccccc4F)=N3)cc2)cc1Cl` (centres unmarked) [Example I-32], the log p entry (pH 7.5) is “log p (pH 7.5): 5.04”.

On to `CC(C)COc1ccc(-c2ccc(C3COC(c4ccccc4Cl)=N3)cc2)cc1Cl` (centres unmarked) [Example I-34], for which the log p entry (pH 7.5) is given as “log p (pH 7.5): 6.03”. Still for that read-out and setting: under `CCCc1cc(-c2ccc(C3COC(c4ccccc4Cl)=N3)cc2)ccc1OC(C)C` (centres unmarked) [Example I-36] stands “log p: 6.35 (pH 7.5)”; under `CCCc1cc(-c2ccc(C3COC(c4ccccc4Cl)=N3)cc2)ccc1OCC(C)C` (centres unmarked) [Example I-37], “log p: 6.95 (pH 7.5)”; under `CCCc1cc(-c2ccc(C3COC(c4ccccc4Cl)=N3)cc2)ccc1OCC(C)O` (centres unmarked) [Example I-39], “log p: 4.47 (pH 7.5)”. The same measure, in the same setting: as for `CCCc1cc(-c2ccc(C3COC(c4ccccc4Br)=N3)cc2)ccc1OC(C)C` (centres unmarked) [Example I-40], the entry is “log p: 6.40 (pH 7.5)”; as for `Cc1cc(-c2ccc(C3COC(c4c(F)cccc4F)=N3)cc2)cc(C)c1OC(C)C` (centres unmarked) [Example I-44], “log p: 5.23 (pH 7.5)”. The same measure, in the same setting: as for `CCCc1cc(-c2ccc(C3COC(c4ccccc4C)=N3)cc2)ccc1OC(C)C` (centres unmarked) [Example I-52], the entry is “log p: 6.78 (pH 7.5)”; as for `C=CCOc1ccc(-c2ccc(C3COC(c4ccccc4C)=N3)cc2)cc1C` (centres unmarked) [Example I-55], “log p: 5.64 (pH 7.5)”; as for `CCCc1cc(-c2ccc(C3COC(c4ccccc4I)=N3)cc2)ccc1OC(C)C` (centres unmarked) [Example I-57], “log p: 6.59 (pH 7.5)”. For the molecule `C=CCc1cc(-c2ccc(C3COC(c4c(F)cccc4F)=N3)cc2)ccc1OC(C)CC` (centres unmarked) [Example I-59], the log p result (pH 7.5) was “log p: 5.95 (pH 7.5)”. With `CCCc1cc(-c2ccc(C3COC(c4c(F)cccc4F)=N3)cc2)ccc1OCc1ccc(C(C)(C)C)cc1` (centres unmarked) [Example I-60], under “pH 7.5”, the log p result is on record as “log p: 7.14 (pH 7.5)”. Same read-out and setting: under `CCc1cc(-c2ccc(C3COC(c4c(F)cccc4F)=N3)cc2)ccc1OC(C)C` (centres unmarked) [Example I-63] stands “log p: 5.54 (pH 7.5)”; under `CCCc1cc(-c2ccc(C3COC(c4ccccc4C)=N3)cc2)ccc1OCC(C)C` (centres unmarked) [Example I-64], “log p: 4.48 (pH 7.5)”.
